Test results as given in paper PMC8588041, “Protective Role of Flavonoids against Intestinal Pro-Inflammatory Effects of Silver Nanoparticles” (Molecules, 2021).
Where two headings read alike, the source gives them in different places.

Legend:
[1] = test system: Caco-2 cell line; test: Annexin V-FITC versus propidium iodide flow cytometry (cell death); details: for Apoptosis-preventive effect (apoptotic population versus AgNP controls): flavonoid 25 μM co-incubated 24 h with 4 nm and 19 nm AgNP 20 µg/mL, Caco-2
Description: The evaluation of cell death was analyzed by flow cytometry, following simultaneous staining with propidium iodide (PI) and Annexin V labeled with fluorescein isothiocyanate (FITC), according to a previously described method, using the Annexin V-FITC Apoptosis Detection Kit. Briefly, 5 × 10^5 cells/well were seeded in 6 well plates and exposed to 20 μg/mL AgNP (4 and 19 nm) and/or to the flavonoids quercetin or quercetagetin (25 μM) for 24 h. […] After the 24 h exposure, cell supernatants were discarded, and cells were washed with DPBS buffer and detached from cells plates with trypsin:EDTA solution. Individualized cells were counted in a Neubauer chamber, and after DPBS wash, cells were resuspended at a density of 1 × 10^6 cells/mL binding buffer provided by the kit. Subsequently, 1 × 10^5 cells were transferred to suitable cytometry tubes, and Annexin V-FITC and PI were added. The mixture was incubated for 15 min and at least 10,000 events were immediately read in a BD Accuri™ C6 Plus Flow Cytometer (BD biosciences, Becton, Franklin Lakes, NJ, USA). The green fluorescence corresponding to Annexin-V conjugated with FITC was followed in channel 1 (FL1) and plotted as a histogram of FL1 staining. Fluorescence due to the PI incorporation was followed in channel 3 (FL3).

[2] = test system: Caco-2 cell line; test: Nitrite measurement by Griess reaction (•NO production); type: cell-based, human; details: for Prevention of AgNP-induced •NO production: flavonoids at maximum non-cytotoxic concentrations, Caco-2, 24 h, data not shown
Description: Nitrite measurement was based on the colorimetric detection of the reaction product of nitrite with naphthylethylenediamine dihydrochloride. The concentration of nitrite, which reflects nitric oxide (^•NO) production, was measured in the cell-free supernatants collected from the Caco-2 cell line. […] After the incubation period, 150 μL of culture medium was collected and placed in 96-well plates. […] The absorbance was measured at 570 nm using an automatic plate reader.

[3] = test system: human neutrophils; test: Neutrophil viability, PI staining flow cytometry; type: cell-based; details: PEI 10 μg/mL, AgNO3 3 μg/mL, data not shown
Description: Following exposure, cells were centrifuged (400× g at 20 °C, during 5 min) and the supernatant was discarded. The pellet was resuspended in DPBS solution and centrifuged (200g at 20 °C, during 5 min). After centrifugation, the pellet was resuspended with 100 μL propidium iodide solution (1 µg/mL) and incubated for 15 min in the dark. After this time, 400 μL of DPBS buffer was added and the fluorescence was measured in flow cytometer. To restrict the analysis to neutrophils only, a polygon gate was set according to their light scattering properties (in a forward vs. side scatter plot) excluding cell debris and other blood cells. Fluorescence signals for at least 10,000 cells were collected in logarithmic mode and the data were analyzed using C Flow (Accuri®) software (BD, Becton, Dickinson and Company, Franklin Lakes, NJ, USA).

[4] = test system: human neutrophils; test: Neutrophil oxidative burst, DHR oxidation; details: for Effect of inhibitors on AgNP-induced DHR oxidation: DPI 10 µM, VAS2870 25 µM, Gö6983 1 µM, added with AgNP 10 µg/mL (4 nm and 19 nm); for Percentage of inhibition at the highest tested concentration: 25 μM flavonoid
Description: All patient-related procedures and protocols were performed in accordance with the Declaration of Helsinki and approved by the Ethics Committee of Centro Hospitalar do Porto. After written informed consent was obtained, venous blood from healthy human volunteers was collected by antecubital phlebotomy into vacuum tubes with K3EDTA. The isolation of human neutrophils was performed by the density gradient centrifugation method, as previously reported by our research group. Cells were resuspended in Tris buffer (25 mM Tris, 1.26 mM CaCl2, 5.37 mM KCl, 0.81 mM MgSO4, 140 mM NaCl and 5.55 mM D-Glucose) and the cell viability and cell yield (number of cells/mL) were determined by the trypan blue exclusion method using a Neubauer chamber.
The measurement of neutrophil oxidative burst was performed by monitoring the oxidation of DHR, by neutrophil-generated reactive species. Neutrophils (3 × 10^6 cells/mL) were incubated in a humidified incubator, at 37 °C, with 4 nm or 19 nm AgNP (0–10 µg/mL) alone or with flavonoids (0–25 µM) followed by DHR (10 µM) for 1 h 30 min.
The NADPH oxidase inhibitors, DPI (10 µM) and VAS2870 (25 µM), and the protein kinase C (PKC) inhibitor, Gö6983 (1 µM), were also tested, by their concomitant addition with AgNP (10 µg/mL). The fluorescence was measured in a microplate reader (λexcitation = 507 ± 20 nm/λemmission = 529 ± 20 nm).

[5] = test system: Caco-2 cell line; test: MTT reduction assay, cytotoxicity in Caco-2 cells; details: for Selected Maximum Concentration (maximum non-cytotoxic flavonoid concentration): Caco-2 cells, 24 h, MTT assay, tested 3.13 to 50 μM; for Protection against AgNP-induced cytotoxicity: 24 h co-incubation with 20 or 50 μg/mL AgNP (4 and 19 nm), non-toxic flavonoid concentrations (quercetagetin 50 µM)
Description: Cells were grown in a 5% CO2 atmosphere at 37 °C. For each experiment, the cells were used when reaching 80% of confluence, which represented 3 to 5 days of differentiation. Then, the proliferating Caco-2 cells were treated 24 h after seeding.
The MTT reduction assay was used to determine the cytotoxicity of PEI coated-AgNP of two sizes (4 and 19 nm) in the Caco-2 cell line. […] After the exposure period, the culture medium was replaced with fresh medium containing 0.5 mg/mL MTT and the cells were further incubated for 2 h. The resulting dark purple crystals of formazan were then dissolved in DMSO and the absorbance of the corresponding solution, which was directly proportional to the number of living cells, was measured in an automatic plate reader set at a test wavelength of 570 nm and a reference wavelength of 620 nm.

[6] = test system: Caco-2 cells; details: cited from earlier work
[7] = Homo sapiens, Neutrophil, read-out: IC50 (Mean ± SEM), inhibition of AgNP 4 nm-induced oxidative burst, AgNP 4 nm, human neutrophils, DHR
[8] = Homo sapiens, Neutrophil, read-out: IC50 (Mean ± SEM), inhibition of AgNP 19 nm-induced oxidative burst, AgNP 19 nm, human neutrophils, DHR
[9] = read-out: IC50 (Mean ± SEM), inhibition of AgNP 4 nm-induced oxidative burst, AgNP 4 nm, human neutrophils, DHR

O=[N+]([O-])[O-].[Ag+] [AgNO3, Silver nitrate, reference compound]
Cell viability (Annexin V/PI) ([1]; PEI 20 μg/mL, AgNO3 4.5 μg/mL, Caco-2, 24 h, data not shown): did not induce significant alterations in cell viability
•NO production ([2]; 9 μg/mL AgNO3, 24 h, Caco-2): induced a significant production of ^•NO
Neutrophil viability [3]: did not affect neutrophil viability
Neutrophil oxidative burst ([4]; PEI 10 μg/mL, AgNO3 3 μg/mL, data not shown): did not affect neutrophil oxidative burst

c1ccc2c(c1)[I+]c1ccccc1-2 [DPI, diphenyleneiodonium chloride, reference compound]
Effect of inhibitors on AgNP-induced DHR oxidation [4]: decreased DHR oxidation induced by 4nm and 19 nm AgNP

COc1ccc(-c2cc(=O)c3c(O)cc(O)cc3o2)cc1O [Diosmetin]
Percentage of inhibition at the highest tested concentration ([4]; AgNP 4 nm, human neutrophils, DHR): 37 ± 3 %
Percentage of inhibition at the highest tested concentration ([4]; AgNP 19 nm, human neutrophils, DHR): 37 ± 7 %
IC50 ([4]; Homo sapiens, Neutrophil, read-out: IC50, inhibition of AgNP-induced neutrophil oxidative burst, AgNP of 4 and 19 nm, human neutrophils, DHR): > 25000 nM

O=c1c(O)c(-c2ccc(O)c(O)c2)oc2c(O)c(O)cc(O)c12 [Gossypetin]
IC50 ([4]; Homo sapiens, Neutrophil, read-out: IC50 (Mean ± SEM), inhibition of AgNP 4 nm-induced oxidative burst): 2100 ± 300 nM
IC50 ([4]; Homo sapiens, Neutrophil, read-out: IC50 (Mean ± SEM), inhibition of AgNP 19 nm-induced oxidative burst): 4500 ± 1200 nM

COc1ccc2c(c1)c(C1=C(c3c[nH]c4ccccc34)C(=O)NC1=O)cn2CCCN(C)C [Gö6983, 3-[1-[3-(dimethylamino)propyl]-5-methoxy-1H-indol-3-yl]-4-(1H-indol-3-yl)-1H-pyrrole-2,5-dione, reference compound]
Effect of inhibitors on AgNP-induced DHR oxidation [4]: prevented the activation of neutrophil oxidative burst induced by AgNP

O=c1cc(-c2ccc(O)c(O)c2)oc2cc(O)cc(O)c12 [Luteolin]
Selected Maximum Concentration (maximum non-cytotoxic flavonoid concentration) [5]: 12.5 µM
IC50 [4, 7]: 1300 ± 200 nM
IC50 [4, 8]: 1300 ± 200 nM

O=c1c(O)c(-c2ccc(O)cc2O)oc2cc(O)cc(O)c12 [Morin]
Selected Maximum Concentration (maximum non-cytotoxic flavonoid concentration) [5]: 50.0 µM
IC50 [4, 7]: 1400 ± 400 nM
IC50 [4, 8]: 1500 ± 400 nM

O=c1c(O)c(-c2cc(O)c(O)c(O)c2)oc2cc(O)cc(O)c12 [Myricetin]
Selected Maximum Concentration (maximum non-cytotoxic flavonoid concentration) [5]: 50.0 µM
IC50 [4, 7]: 2300 ± 100 nM
IC50 [4, 8]: 3100 ± 200 nM

O=c1c(O)c(-c2ccc(O)c(O)c2)oc2cc(O)c(O)c(O)c12 [Quercetagetin]
Protection against AgNP-induced cytotoxicity [5]: prevented the cytotoxic effects of the two sizes of AgNP
Protection against AgNP-induced cytotoxicity ([5]; listed as quercetagetin): significantly reduced the cell death induced by AgNP of 4 and 19 nm
Selected Maximum Concentration (maximum non-cytotoxic flavonoid concentration) [5]: 50.0 µM
Percentage of apoptotic cells on co-treatment ([1]; co-treatment with 4 nm AgNP (20 μg/mL), Caco-2, 24 h): increased the percentage of apoptotic cells
Apoptosis-preventive effect (apoptotic population versus AgNP controls) [1]: did not significantly decrease the apoptotic population
Prevention of AgNP-induced •NO production [2]: neither quercetin nor quercetagetin prevented AgNP-induced ^•NO production
IC50 [4, 7]: < 1000 nM
IC50 [4, 8]: 3000 ± 200 nM
IC50 [4, 9]: 530 ± 60 nM

O=c1c(O)c(-c2ccc(O)c(O)c2)oc2cc(O)cc(O)c12 [Quercetin]
Protection against AgNP-induced cytotoxicity [5]: partially prevented AgNP cytotoxicity
Protection against AgNP-induced cytotoxicity ([5]; listed as quercetin): significantly reduced the cell death induced by AgNP of 4 and 19 nm
Selected Maximum Concentration (maximum non-cytotoxic flavonoid concentration) [5]: 25.0 µM
Apoptosis-preventive effect (apoptotic population versus AgNP controls) [1]: reversed the pro-apoptotic effect of AgNP
Prevention of AgNP-induced •NO production [2]: neither quercetin nor quercetagetin prevented AgNP-induced ^•NO production
IC50 [4, 7]: < 1000 nM
IC50 [4, 8]: 3100 ± 600 nM
IC50 [4, 9]: 940 ± 90 nM
Reversal of loss of viability induced by AgNP ([6]; 10 and 50 µM, Caco-2 cells treated with AgNP < 20 nm (30–90 μg/mL)): most effectively reversed the loss of viability induced by AgNP
Reversal of toxicity induced by AgNP ([6]; quercetin 50 µM, AgNP ≥45 μg/mL, ref Martirosyan et al.): successfully reverted the toxicity induced by AgNP

c1ccc(Cn2nnc3c(Sc4nc5ccccc5o4)ncnc32)cc1 [VAS2870, reference compound]
Effect of inhibitors on AgNP-induced DHR oxidation [4]: decreased DHR oxidation induced by 4nm and 19 nm AgNP
